{"source": "paper PMC4412765", "about": "(Chemical biology & drug design, 2014)", "origin": "cited, not measured here", "tested_on": "S. aureus", "settings": "cited from earlier work"}
{"molecule": "C(=C\\c1cc2ccc(C3=NCCN3)cc2[nH]1)/c1cc2ccc(C3=NCCN3)cc2[nH]1", "note": "[BPH-1417]", "values": [{"measurement": "in vitro activity against S. aureus", "result": "potent"}]}
